Consider ten compounds from ChEMBL document CHEMBL1201862, “PubChem BioAssay data set” (2004).

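These data come from cells grown in 96-well plates and exposed to compound for 48 hours at five concentrations. Abbreviation: GI50, concentration required for 50% inhibition of growth.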 Active and inactive are the calls of the source. No stated cut-off is given here; in the data, active = GI50 up to about 1.1 µM and inactive = higher.

Among the test systems are 786-0; A498; A549; COLO 205; HCT-116; HCT-15; M14; OVCAR-3; OVCAR-4; OVCAR-8; PC-3; SF-295; SK-MEL-28; SK-MEL-2; SNB-19; SNB-75; T47D; UACC-257; UACC-62; UO-31.
What all share (test): NCI anticancer screen, dose series, 48 h

On to `Cc1cccc2sc(NC(=O)c3cc([N+](=O)[O-])ccc3Cl)nc12`, for which the GI50 was 1.89 µM (inactive) in the test with 786-0; 17.3 µM (inactive) with A498; 3.86 µM (inactive) in the test on A549; 5.96 µM (inactive) in the test on COLO 205; 2.55 µM (inactive) in the test on HCT-116; 1.91 µM in the test on HCT-15. Moreover, the GI50 in the test on M14 is 1.77 µM (inactive); with OVCAR-3, 4.06 µM (inactive); in the test with OVCAR-4, 8.51 µM (inactive); in the test with OVCAR-8, 2.36 µM (inactive); in the test with PC-3 it was 4.14 µM (inactive); with SF-295 it was 4.82 µM (inactive). Further, the GI50 is 5.22 µM (inactive) in the test on SK-MEL-28; 4.46 µM (inactive) with SK-MEL-2; 7.78 µM (inactive) in the test on SNB-19; 1 µM (active) in the test with SNB-75; 4.35 µM (inactive) with T47D; 6.84 µM (inactive) in the test on UACC-257. For the same compound, the GI50 in the test with UACC-62 was 3.61 µM (inactive); with UO-31, 2.34 µM (inactive).
On to `NCCCN1c2ccccc2Sc2ccc(Cl)cc21`, for which the GI50 in the test on 786-0 was 3.24 µM (inactive); in the test with A498, > 10 µM (inactive); with A549, 4.59 µM (inactive); in the test with COLO 205, 1.81 µM (inactive); in the test on HCT-116, 2.53 µM (inactive); with HCT-15, 4.72 µM. Besides, the GI50 with M14 was 1.73 µM (inactive); in the test with OVCAR-3, 5.3 µM (inactive); in the test on OVCAR-4, > 10 µM (inactive); in the test with OVCAR-8, 5.7 µM (inactive); in the test on PC-3 it was 4.17 µM (inactive); in the test on SF-295, > 5.83 µM (inactive). The GI50 in the test on SK-MEL-28 was > 5.85 µM (inactive); with SK-MEL-2, > 6.21 µM (inactive); in the test with SNB-19 it was > 8.45 µM (inactive); in the test on SNB-75 it was > 6.98 µM (inactive); in the test with T47D, > 5.36 µM (inactive); with UACC-257, > 6.19 µM (inactive). Besides, the values for the GI50 with UACC-62 and in the test on UO-31 were > 7.31 µM (inactive) and 7.8 µM (inactive), respectively.
`CC(CC=O)Nc1nn2c(=O)c3ccccc3nc2s1` (centres undefined): the GI50 in the test on 786-0 is > 100 µM (inactive); in the test with A498, > 100 µM (inactive); in the test on A549, > 100 µM (inactive); with COLO 205, > 100 µM (inactive); in the test on HCT-116, > 100 µM (inactive); in the test on HCT-15 it was > 100 µM. Besides, the GI50 in the test on M14, with OVCAR-3, in the test on OVCAR-4, with OVCAR-8, in the test with PC-3 and with SF-295 was > 100 µM (inactive) throughout. In addition, the GI50 with SK-MEL-28, in the test on SK-MEL-2, with SNB-19, in the test with SNB-75, in the test on T47D and in the test on UACC-257 was > 100 µM (inactive) in each case. Further, the GI50 was 43.1 µM (inactive) with UACC-62 and 18.2 µM (inactive) in the test with UO-31.
As to `C=CN1CCN(c2ccccc2)P1(=O)Oc1ccccc1` (centres undefined), the GI50 is > 100 µM (inactive) in the test on 786-0; > 100 µM (inactive) with A498; > 100 µM (inactive) in the test on A549; > 100 µM (inactive) in the test with COLO 205; 48 µM (inactive) in the test with HCT-116; > 100 µM in the test with HCT-15. The GI50 in the test with M14 was 40.2 µM (inactive); in the test on OVCAR-3, > 100 µM (inactive); with OVCAR-4 it was > 100 µM (inactive); with OVCAR-8 it was 89.3 µM (inactive); with PC-3, 31.3 µM (inactive); in the test on SF-295, > 100 µM (inactive). For the same compound, the GI50 in the test with SK-MEL-28 was > 100 µM (inactive); in the test on SK-MEL-2, 54.6 µM (inactive); in the test with SNB-19, > 100 µM (inactive); in the test with SNB-75, 16.4 µM (inactive); in the test with T47D, 63.7 µM (inactive); in the test with UACC-257, > 100 µM (inactive). Further, the GI50 in the test with UACC-62 was 53.1 µM (inactive); in the test with UO-31 it was 20 µM (inactive).
`CC(C)c1cc2c(cc1S(=O)(=O)O)[C@@]1(C)CCC[C@@](C)(C(=O)O)C1CC2` (some centres undefined): the GI50 in the test with 786-0 is > 100 µM (inactive); with A498, > 100 µM (inactive); with A549 it was > 100 µM (inactive); in the test on COLO 205 it was > 100 µM (inactive); with HCT-116, > 100 µM (inactive); with HCT-15, > 100 µM. For the same compound, the GI50 in the test with M14, in the test on OVCAR-3, with OVCAR-4, with OVCAR-8, in the test on PC-3 and with SF-295 was > 100 µM (inactive) each time. In addition, the GI50 with SK-MEL-28, in the test on SK-MEL-2, in the test on SNB-19, in the test on SNB-75, with T47D and in the test on UACC-257 was > 100 µM (inactive) throughout. Moreover, the GI50 with UACC-62 and with UO-31 was > 100 µM (inactive) each time.
Turning to `O=C(COc1ccc(OCC(=O)N2C(=O)CC/C2=N\c2ccc(Cl)cc2)cc1)N1C(=O)CS/C1=N\c1ccc(Cl)cc1`, the GI50 is > 100 µM (inactive) in the test on 786-0; > 100 µM (inactive) in the test with A498; 26.4 µM (inactive) with A549; 47.9 µM (inactive) in the test with COLO 205; 93.8 µM (inactive) in the test on HCT-116; > 100 µM in the test on HCT-15. Besides, the GI50 was 89.7 µM (inactive) with M14; 61.2 µM (inactive) with OVCAR-3; 75.3 µM (inactive) in the test with OVCAR-4; 47.5 µM (inactive) in the test on OVCAR-8; 47.1 µM (inactive) in the test on PC-3; 52.8 µM (inactive) in the test with SF-295. Besides, the GI50 in the test with SK-MEL-28 was > 100 µM (inactive); with SK-MEL-2 it was > 100 µM (inactive); in the test with SNB-19, 63.2 µM (inactive); in the test on SNB-75, 18.5 µM (inactive); with T47D, 14.2 µM (inactive); in the test with UACC-257, 56 µM (inactive). The results for the GI50 in the test on UACC-62 and in the test on UO-31 were > 100 µM (inactive) and 37.2 µM (inactive), respectively.
Regarding `COc1ccc(/N=C\c2ccc(N(CCC#N)CCC#N)cc2)cc1`, the GI50 with 786-0 was 52.2 µM (inactive); in the test on A498, > 100 µM (inactive); in the test with A549, 47.9 µM (inactive); in the test with COLO 205 it was 44.2 µM (inactive); in the test with HCT-116, 63.8 µM (inactive); with HCT-15 it was 17.4 µM. The GI50 in the test on M14 is 28.1 µM (inactive); in the test with OVCAR-3, 78.3 µM (inactive); in the test on OVCAR-4 it was > 86.1 µM (inactive); in the test with OVCAR-8 it was 74.6 µM (inactive); in the test with PC-3, 47 µM (inactive); with SF-295, 54.1 µM (inactive). The GI50 with SK-MEL-28 is > 81.1 µM (inactive); in the test on SK-MEL-2, > 67.1 µM (inactive); in the test on SNB-19, 90.2 µM (inactive); in the test with SNB-75 it was > 100 µM (inactive); in the test with T47D, > 100 µM (inactive); in the test with UACC-257, > 100 µM (inactive). The results for the GI50 in the test with UACC-62 and in the test on UO-31 were 16.6 µM (inactive) and 44.5 µM (inactive), respectively.
For the compound `COc1cc(/C=C/c2sc3ccccc3[n+]2C)ccc1N(C)C`, the GI50 was 12.2 µM (inactive) in the test with 786-0; 44 µM (inactive) in the test on A498; 5.98 µM (inactive) in the test with A549; 1.29 µM (inactive) in the test on COLO 205; 3.3 µM (inactive) with HCT-116; 37.2 µM in the test on HCT-15. Besides, the GI50 is 13.4 µM (inactive) with M14; 2.23 µM (inactive) in the test on OVCAR-3; 1.33 µM (inactive) in the test on OVCAR-4; 2.93 µM (inactive) in the test on OVCAR-8; 3.24 µM (inactive) in the test with PC-3; 47.4 µM (inactive) in the test on SF-295. Further, the GI50 in the test with SK-MEL-28 was 8.2 µM (inactive); with SK-MEL-2, 2.32 µM (inactive); in the test with SNB-19, 12.9 µM (inactive); with SNB-75, > 10 µM (inactive); in the test on T47D, 3.21 µM (inactive); in the test on UACC-257 it was 2.96 µM (inactive). In addition, the values for the GI50 in the test on UACC-62 and in the test on UO-31 were 5.26 µM (inactive) and < 0.01 µM (active), respectively.
As for `CCOC(=O)c1cn2c(n1)sc1c(Cl)c(Cl)ccc12`, the GI50 in the test with 786-0 is 7.66 µM (inactive); with A498 it was 20.6 µM (inactive); in the test on A549 it was 15.1 µM (inactive); in the test with COLO 205, 6.1 µM (inactive); with HCT-116, 5.69 µM (inactive); in the test on HCT-15, 5.07 µM. Also, the GI50 was 9.38 µM (inactive) in the test on M14; 11.1 µM (inactive) with OVCAR-3; 46.6 µM (inactive) with OVCAR-4; 15.9 µM (inactive) in the test with OVCAR-8; 18.3 µM (inactive) in the test on PC-3; 22.9 µM (inactive) in the test with SF-295. Further, the GI50 in the test on SK-MEL-28 was 20.8 µM (inactive); with SK-MEL-2 it was 27.4 µM (inactive); in the test on SNB-19 it was 25.3 µM (inactive); in the test with SNB-75 it was 15 µM (inactive); in the test with T47D it was 0.91 µM (active); in the test on UACC-257, 28.2 µM (inactive). Moreover, the GI50 in the test on UACC-62 is 20.2 µM (inactive); in the test on UO-31, 13.4 µM (inactive).
`C=C1C(=O)OC2C1C(OC(=O)/C(C)=C/C)CC1(C)C(=O)CCC(=C)C21` (centres undefined): the GI50 in the test on 786-0 is 4.02 µM (inactive); in the test with A498 it was 13.8 µM (inactive); with A549 it was 19.2 µM (inactive); with COLO 205 it was 5.33 µM (inactive); with HCT-116, 4.03 µM (inactive); with HCT-15, 3.15 µM. The GI50 with M14 was 5.26 µM (inactive); in the test on OVCAR-3, 6.92 µM (inactive); with OVCAR-4 it was 11 µM (inactive); in the test on OVCAR-8, 12.1 µM (inactive); with PC-3, 11 µM (inactive); with SF-295, 18.5 µM (inactive). For the same compound, the GI50 is 3.47 µM (inactive) with SK-MEL-28; 11.9 µM (inactive) in the test on SK-MEL-2; 15.9 µM (inactive) in the test with SNB-75; 13.1 µM (inactive) in the test on T47D; 11.2 µM (inactive) in the test with UACC-257; 8.47 µM (inactive) with UACC-62. The GI50 in the test with UO-31 is 6.55 µM (inactive).
